Patent US9102688B2, “Sulfonaminoquinoline hepcidin antagonists” (Vifor (International) AG, priority 2011, dated 2015)

Target: T1, human ferroportin (Homo sapiens, UniProt Q9NP59)
T1 construct: expressed in transfected cells
T1 sequence (Q9NP59 1-571): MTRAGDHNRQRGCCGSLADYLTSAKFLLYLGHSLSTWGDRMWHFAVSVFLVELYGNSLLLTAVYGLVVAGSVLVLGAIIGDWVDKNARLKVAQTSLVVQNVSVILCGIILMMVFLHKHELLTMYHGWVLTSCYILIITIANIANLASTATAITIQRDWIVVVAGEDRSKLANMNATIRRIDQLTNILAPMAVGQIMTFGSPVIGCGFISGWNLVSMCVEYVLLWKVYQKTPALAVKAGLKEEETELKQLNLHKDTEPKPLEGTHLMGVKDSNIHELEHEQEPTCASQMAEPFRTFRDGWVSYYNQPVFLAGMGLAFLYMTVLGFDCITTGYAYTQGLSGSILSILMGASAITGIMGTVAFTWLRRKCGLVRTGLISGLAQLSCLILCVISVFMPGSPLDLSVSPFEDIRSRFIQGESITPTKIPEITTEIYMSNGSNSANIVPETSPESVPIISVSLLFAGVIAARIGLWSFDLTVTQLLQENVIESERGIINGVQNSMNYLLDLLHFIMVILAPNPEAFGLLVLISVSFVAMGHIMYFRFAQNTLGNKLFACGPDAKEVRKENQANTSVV
Assay: ferroportin internalization assay (inhibition of hepcidin-induced internalization of Fpn)
Type: cell-based
Conditions: MDCK-FPN-HaloTag cells, 100 nM hepcidin, overnight incubation; concentration range from 0.04 to 40 μM
Method: The hepcidin-antagonistic action of the sulfonaminoquinoline compounds of the present invention was determined by means of the “ferroportin internalization assay” described in the following.
Organic compounds of low molecular weight which counteract the biological actions of hepcidin on its receptor, the iron exporter ferroportin (Fpn), were identified on the basis of their ability to inhibit hepcidin-induced internalization of Fpn in living cells. For this purpose, a stable cell line (Madin-Darby canine kidney, MDCK) was produced which constitutively expresses human ferroportin fused recombinantly at its C terminus with a fluorescent reporter protein (HaloTag®, Promega Corp.). The internalization of Fpn was monitored by labelling these cells with fluorescent ligands (HaloTag®-TMR, tetramethylrhodamine) which join covalently on to the HaloTag reporter gene fused with the Fpn. […] Optimized image analysis algorithms were used to ascertain the cell surface and to quantify the corresponding membrane fluorescence associated with the Fpn-HaloTag fusion protein. This assay allows a quantitative image-based analysis in order to quickly evaluate compounds which can block hepcidin-induced internalization of Fpn. This assay is a direct in vitro pendant of the in vivo action mechanism proposed for medicament candidates and is therefore suitable as an initial assay with a high throughput for identifying compounds which counteract the action of hepcidin on its receptor ferroportin.
• 7,500 cells per well (MDCK-FPN-HaloTag) were transinoculated in 50 μl of DMEM medium (Dulbeccos Modified Eagle Medium with 10% foetal bovine serum (FBS), which contained 1% penicillin, 1% streptomycin and 450 μg/ml of G-418) in microtitre plates with 384 wells (384 Cell carrier plates, Perkin Elmer, cat. no. 6007430), followed by incubation overnight at 37° C./5% CO2. • The volume of the medium was reduced to 10 μl, and 10 μl of 5 μM HaloTag-TMR ligands (Promega, cat. no. G 8251) were added in DMEM medium in order to stain the Fpn-HaloTag fusion protein. • 15 min incubation at 37° C./5% CO2 • The HaloTag-TMR ligand was removed and the cells were washed with fresh DMEM medium and the volume was reduced to 20 μl of DMEM medium. • 3 μl per well of a solution of the test compound (dissolved DMSO) were added ([…]). • 7 μl of […] hepcidin (Peptides International, cat. no. PLP-4392-s, 100 μM stock solution diluted in water in DMEM medium) were added per well up to a final hepcidin concentration of 100 nM. • The cells were incubated overnight at 37° C./5% CO2. • The cells were fixed by adding paraformaldehyde (PFA, Electron Microscopy Sciences, cat. no. 15710-S) directly to the cells up to a final concentration of 4%, followed by incubation at room temperature for 15-20 minutes. • The PFA solution was removed and the cells were washed with PBS (phosphate-buffered saline solution), in each case 30 μl remaining in the plate. • 20 μl of Draq5 (Biostatus, cat. no. DR 51000) were added up to a final concentration of 2.5 μM in order to stain the cell nuclei, and the plates were sealed with a foil plate seal. • The plates were analysed with the Opera Plate Imager (Opera Confocal Plate Imager, Perkin Elmer) with 7 images per well; 440 ms exposure time per image, […] focal point height.

SMILES	IC50 [nM]
CCN(CC)c1ccc2c(c1)-c1cc(Cl)c3cccnc3c1NS2(=O)=O [Example 505, (12-Chloro-6,6-dioxo-5,6-dihydro-6λ*6*-thia-4,5-diaza-chrysen-9-yl)-diethyl-amine]	2190
COCCNc1cc2c(c3ncccc13)NS(=O)(=O)c1ccccc1-2 [Example 548, (6,6-Dioxo-5,6-dihydro-6λ*6*-thia-4,5-diaza-chrysen-12-yl)-(2-methoxy-ethyl)-amine]	2830
Cc1cccc(S(=O)(=O)Nc2cccc3cccnc23)c1 [Example 19, 3-Methyl-N-quinolin-8-yl-benzenesulfonamide]	2090
Cc1cc(NS(=O)(=O)c2ccccc2)c2ncccc2c1 [Example 77, N-(6-Methyl-quinolin-8-yl)-benzenesulfonamide]	2180
N#Cc1ccccc1S(=O)(=O)Nc1cccc2cccnc12 [Example 37, 2-Cyano-N-quinolin-8-yl-benzenesulfonamide]	815
O=S1(=O)Nc2c(cc(N3CCCC3)c3cccnc23)-c2ccccc21 [Example 553, 12-Pyrrolidin-1-yl-5H-6-thia-4,5-diaza-chrysene 6,6-dioxide]	4360
O=S(=O)(Nc1cc(OC(F)(F)F)cc2cccnc12)c1ccccc1 [Example 92, N-(6-Trifluoromethoxy-quinolin-8-yl)-benzenesulfonamide]	9000
CC(C)C(=O)Nc1cc(C(F)(F)F)ccc1S(=O)(=O)Nc1cccc2cccnc12 [Example 61, N-[2-(Quinolin-8-ylsulfamoyl)-5-trifluoromethyl-phenyl]-isobutyramide]	10000
O=S(=O)(Nc1ccc(F)c2cccnc12)c1ccccc1 [Example 98, N-(5-Fluoro-quinolin-8-yl)-benzenesulfonamide]	988
COc1cc(NS(=O)(=O)c2ccccc2)c2ncccc2c1 [Example 23, N-(6-Methoxy-quinolin-8-yl)-benzenesulfonamide]	6400
COCCNC(=O)c1ccc2c(c1)-c1cc(Cl)c3cccnc3c1NS2(=O)=O [Example 528, 12-Chloro-6,6-dioxo-5,6-dihydro-6λ*6*-thia-4,5-diaza-chrysene-9-carboxylic acid (2-methoxy-ethyl)-amide]	3900
O=S(=O)(Nc1cc(F)cc2cccnc12)c1ccccn1 [Example 236, Pyridine-2-sulfonic acid (6-fluoro-quinolin-8-yl)-amide]	2370
O=S1(=O)Nc2c(cc(N3CCOCC3)c3cccnc23)-c2ccccc21 [Example 549, 12-Morpholin-4-yl-5H-6-thia-4,5-diaza-chrysene 6,6-dioxide]	1140
N#Cc1cccc(S(=O)(=O)Nc2cccc3cccnc23)c1 [Example 16, 3-Cyano-N-quinolin-8-yl-benzenesulfonamide]	413
O=S(=O)(Nc1ccc(C(F)(F)F)c2cccnc12)c1ccccn1 [Example 234, Pyridine-2-sulfonic acid (5-trifluoromethyl-quinolin-8-yl)-amide]	460
COC(=O)c1ccccc1S(=O)(=O)Nc1cccc2cccnc12 [Example 39, 2-(Quinolin-8-ylsulfamoyl)-benzoic acid methyl ester]	58100
N#Cc1ccc(S(=O)(=O)Nc2ccc(C(F)(F)F)c3cccnc23)cn1 [Example 240, 6-Cyano-pyridine-3-sulfonic acid (5-trifluoromethyl-quinolin-8-yl)-amide]	2600

The next lines start with the values.

IC50 [nM]	SMILES
4190	O=S1(=O)Nc2c(cc(F)c3cccnc23)-c2cc(C(F)(F)F)ccc21 [Example 306, 12-Fluoro-9-trifluoromethyl-5H-6-thia-4,5-diaza-chrysene 6,6-dioxide]
340	CN1C(c2ccc(F)cc2)c2ccc3cccnc3c2NS1(=O)=O (centres unmarked) [Example 382, 1-(4-Fluoro-phenyl)-2-methyl-1,4-dihydro-2H-3-thia-2,4,5-triaza-phenanthrene 3,3-dioxide]
460	O=S1(=O)Nc2c(ccc3cccnc23)CN1c1ccccc1 [Example 113, 2-Phenyl-1,4-dihydro-2H-3-thia-2,4,5-triaza-phenanthrene 3,3-dioxide]
4000	Cc1c(Cl)cccc1S(=O)(=O)Nc1cccc2cccnc12 [Example 68, 3-Chloro-2-methyl-N-quinolin-8-yl-benzenesulfonamide]
15400	Cc1cccc(S(=O)(=O)Nc2cccc3cccnc23)n1 [Example 228, 6-Methyl-pyridine-2-sulfonic acid quinolin-8-ylamide]
1480	COc1ccc(C2c3ccc4cccnc4c3NS(=O)(=O)N2C)cc1F (centres unmarked) [Example 396, 1-(3-Fluoro-4-methoxy-phenyl)-2-methyl-1,4-dihydro-2H-3-thia-2,4,5-triaza-phenanthrene 3,3-dioxide]
49900	Cc1ccc(S(=O)(=O)Nc2cccc3cccnc23)cc1 [Example 9, 4-Methyl-N-quinolin-8-yl-benzenesulfonamide]
1000	O=S(=O)(Nc1cc(F)cc2cccnc12)c1c(F)cccc1F [Example 94, 2,6-Difluoro-N-(6-fluoro-quinolin-8-yl)-benzenesulfonamide]
1390	Cc1cnc2c(NS(=O)(=O)c3cccnc3)cccc2c1 [Example 72, Pyridine-3-sulfonic acid (3-methyl-quinolin-8-yl)-amide]
6150	O=S1(=O)Nc2c(ccc3cccnc23)-c2cccnc21 [Example 318, 11H-12-Thia-1,10,11-triaza-chrysene 12,12-dioxide]
1560	O=S1(=O)Nc2c(ccc3cccnc23)-c2cc(F)ccc21 [Example 74, 9-Fluoro-5H-6-thia-4,5-diaza-chrysene 6,6-dioxide]
1570	CN1C(c2ccc(F)cn2)c2ccc3cccnc3c2NS1(=O)=O (centres unmarked) [Example 388, 1-(5-Fluoro-pyridin-2-yl)-2-methyl-1,4-dihydro-2H-3-thia-2,4,5-triaza-phenanthrene 3,3-dioxide]
13200	CNC(=O)c1ccc2c(c1)-c1ccc3cccnc3c1NS2(=O)=O [Example 522, 6,6-Dioxo-5,6-dihydro-6λ*6*-thia-4,5-diaza-chrysene-9-carboxylic acid methylamide]
1150	CN1C(c2ccc(OC(F)(F)F)cc2)c2ccc3cccnc3c2NS1(=O)=O (centres unmarked) [Example 393, 2-Methyl-1-(4-trifluoromethoxy-phenyl)-1,4-dihydro-2H-3-thia-2,4,5-triaza-phenanthrene 3,3-dioxide]
1580	COc1ccc2c(c1)-c1ccc3cccnc3c1NS2(=O)=O [Example 105, 9-Methoxy-5H-6-thia-4,5-diaza-chrysene 6,6-dioxide]
3690	O=S(=O)(Nc1cccc2cccnc12)c1ccc(C(F)(F)F)nc1 [Example 89, 6-Trifluoromethyl-pyridine-3-sulfonic acid quinolin-8-ylamide]
1500	Cc1c(F)cccc1S(=O)(=O)Nc1cccc2cccnc12 [Example 83, 3-Fluoro-2-methyl-N-quinolin-8-yl-benzenesulfonamide]
1600	CN1C(c2ccncc2F)c2ccc3cccnc3c2NS1(=O)=O (centres unmarked) [Example 387, 1-(3-Fluoro-pyridin-4-yl)-2-methyl-1,4-dihydro-2H-3-thia-2,4,5-triaza-phenanthrene 3,3-dioxide]
